Read-outs that look alike come from different tables or passages of the source.
Columns and labels:
[1] = test system: bronchial smooth muscle; conditions: by inhalation or intravenously; cited from earlier work
[2] = test system: bronchodilation; conditions: inhalational administration to guinea pigs; cited from earlier work
[3] = test system: Guinea Pig Tracheal Tissue; experiment: Relaxation of guinea pig tracheal tissue in vitro; format: cell-based; conditions: Table B, standard error in parentheses
Description: Male guinea pigs weighing 200-500 g were killed by a blow on the head. A 20 mm length of trachea was dissected from each of the animals, transferred to a petri dish containing Krebs' solution aerated with 95% O2 and 5% CO2 at 37° C., and cut longitudinally opposite the tracheal muscle. The tissue was then cut transversely three quarters of the distance across; a second cut in the opposite direction again three quarters of the distance across the tissue was made, and the procedure was continued for the whole tissue. The ends of the trachea were pulled to form a zig-zag shaped strip. The tracheal strips used in the experiment were approximately 30 mm when extended under 0.25-0.5 g load in a tissue bath. Cotton thread was tied to one end of the tissues, and linen thread to the other. The tissues were attached via the linen thread to a glass hook in a 5 ml isolated tissue bath containing Krebs' solution at 37° C. aerated with a mixture of 95% O2 and 5% CO2. The opposite ends were attached via cotton thread to an isotonic transducer. The load on the transducer lever was small, usually 0.3 g, with a range of 0.25-0.5 g; and the magnification high, 80-fold using an appropriate twin-channel pen recorder. A minimum of thirty minutes was allowed before applying a drug to the tissues. Drugs were then applied (in volumes of 0.5 ml) at thirty minute intervals, being in contact with the tissue for five minutes followed by an overflow washout time of twenty seconds.

[4] = test system: tracheal smooth muscle; conditions: isolated from a human; cited from earlier work
[5] = test system: tracheal smooth muscle; conditions: isolated from a guinea pig; cited from earlier work
[6] = test system: Histamine-Induced Bronchoconstriction; experiment: Inhibition of histamine-induced bronchoconstriction in the anesthetized guinea pig in vivo by intravenous administration; conditions: Cavia porcellus, iv, i.v. 15 seconds prior to histamine
Description: (§1) Male albino guinea pigs (400-600 g; Dunkin-Hartley Strain) were anesthetized with pentobarbitone sodium (60 mg/kg intraperitoneally).
(§2) Trachea, external jugular vein and carotid artery were cannulated for recording ventilation, intravenous administration of drugs, and blood pressure respectively. The animals were artificially respired throughout the experiment. Electrocardiograms were also recorded. Respiratory flow was charted on a twin-channel recorder fixed to an SE differential pressure transducer.
(§3) Histamine was administered intravenously at 5 minute intervals. The test drug was administered intravenously 15 seconds prior to histamine in order to inhibit bronchoconstriction.

[7] = test system: Histamine-Induced Bronchoconstriction; experiment: Inhibition of intravenous histamine-induced bronchoconstriction in the anesthetized guinea pig by inhalational administration; format: in vivo; conditions: 0.001 μg/ml in stock solution aerosolized; inhalation
Description: as §1, §2, §3
Details of the procedure of this example are the same as those in preceding Example 2 with the exception that the test compounds were delivered in aerosol form into the trachea of the test aminals.

[8] = test system: Convulsions Induced by Inhaled Histamine; experiment: Delay of convulsions induced by inhaled histamine in conscious guinea pigs; format: in vivo, guinea pig
Description: Conscious male albino guinea pigs (Dunkin-Hartley strain) weighing 200-300 g were placed (singly) in a 5-liter transparent chamber for 1 minute and subjected to an aerosol of vehicle or test drug in solution, plus histamine (1% w/v).
The time from the beginning of the administration of the aerosol to the start of the first convulsion (when the guinea pig is immediately removed from the aerosol) is the pre-convulsion time. Twenty-four hours later the general procedure was repeated. Guinea pigs treated with the test drug on the first day were treated with vehicle on the second day and vice versa in a cross-over design. Maximum time allowed in the aerosol was 10 minutes. An ultrasonic humidifier was used to produce the aerosol.

## CCCCC[C@H](O)/C=C/[C@H]1[C@H](O)CC(=O)[C@@H]1CCCCCCC(=O)O [PGE1, 11α,15α-dihydroxy-9-oxo-13-trans-prostenoic acid]
[1]
  relaxation of bronchial smooth muscle in vivo: relaxes bronchial smooth muscle in vivo
[2]
  bronchodilation compared with isoprenaline: superior to that induced by isoprenaline
[3]; 0.001 μg/ml
  Relaxation (×80) (± S.E.): 0 mm
[3]; 0.010 μg/ml
  Relaxation (×80) (± S.E.): 24 (1) mm
[3]; 0.100 μg/ml
  Relaxation (×80) (± S.E.): 46 (19) mm
[3]; 1.000 μg/ml
  Relaxation (×80) (± S.E.): 75 (17) mm
[3]; 10.000 μg/ml
  Relaxation (×80) (± S.E.): 75 (65) mm
[4]
  relaxation of isolated tracheal smooth muscle: relaxes tracheal smooth muscle
[5]
  relaxation of isolated tracheal smooth muscle: relaxes tracheal smooth muscle
[6]; Experiment No. 1, read-out: Dose I.V. inhibiting bronchoconstriction by 50% (ID50)
  ED50: 0.603 µg/kg
[6]; Experiment No. 2, read-out: Dose I.V. inhibiting bronchoconstriction by 50% (ID50)
  ED50: 0.966 µg/kg
[6]; Experiment No. 3, read-out: Dose I.V. inhibiting bronchoconstriction by 50% (ID50)
  ED50: 0.263 µg/kg
[6]; Experiment No. 4, read-out: Dose I.V. inhibiting bronchoconstriction by 50% (ID50)
  ED50: 0.864 µg/kg
[6]; Experiment No. 5, read-out: Dose I.V. inhibiting bronchoconstriction by 50% (ID50)
  ED50: 0.202 µg/kg
[6]; mean of experiments 1-5, read-out: Dose I.V. inhibiting bronchoconstriction by 50% (ID50), Mean
  ED50: 0.579 µg/kg
[7]
  Precent Inhibition of Histamine-Induced Bronchoconstriction: 6%
[8]; Expt. 1B, 0.50 μg/ml stock solution aerosolized, P <0.1
  Prolongation of Preconvulsion Time: 77 s
[8]; Expt. 1B, 2.50 μg/ml stock solution aerosolized, P <0.001
  Prolongation of Preconvulsion Time: 225 s
[8]; Expt. 1B, 5.00 μg/ml stock solution aerosolized, N.S. at P ≤ 0.05
  Prolongation of Preconvulsion Time: 139 s
[8]; Expt. 1B, 10.00 μg/ml stock solution aerosolized, N.S. at P ≤ 0.05
  Prolongation of Preconvulsion Time: 267 s
[8]; Expt. 2B, 0.10 μg/ml stock solution aerosolized, N.S. at P ≤ 0.05
  Prolongation of Preconvulsion Time: 495 s
[8]; Expt. 2B, 0.50 μg/ml stock solution aerosolized, P <0.01
  Prolongation of Preconvulsion Time: 274 s
[8]; Expt. 2B, 1.00 μg/ml stock solution aerosolized, P <0.01
  Prolongation of Preconvulsion Time: 294 s
[8]; Expt. 2B, 5.00 μg/ml stock solution aerosolized, N.S. at P ≤ 0.05
  Prolongation of Preconvulsion Time: 664 s

Source: US4022912A, “Use of 1-decarboxy-1-hydroxymethyl-PGE1 in therapeutic bronchodilation” (priority 1976, dated 1977)
